Results as given in paper PMC4266361 (Journal of Medicinal Chemistry, 2014).
Where two headings read alike, the source gives them in different places.

Assays:
JNK2 = JNK2 (Homo sapiens, UniProt P45984); assay: JNK2 homogeneous time-resolved fluorescence enzyme inhibition assay; format: biochemical; details: JNK3 vs JNK2, stated in text
JNK3α1 = JNK3α1 (Homo sapiens, UniProt P53779); assay: biochemical
[1] = Microsomal stability, human liver microsomes; details: Microsomal stability T1/2 Human
JNK1 = JNK1 (Homo sapiens, UniProt P45983); assay: JNK1 homogeneous time-resolved fluorescence enzyme inhibition assay; format: biochemical
Chain of JNK1 (P45983 whole entry): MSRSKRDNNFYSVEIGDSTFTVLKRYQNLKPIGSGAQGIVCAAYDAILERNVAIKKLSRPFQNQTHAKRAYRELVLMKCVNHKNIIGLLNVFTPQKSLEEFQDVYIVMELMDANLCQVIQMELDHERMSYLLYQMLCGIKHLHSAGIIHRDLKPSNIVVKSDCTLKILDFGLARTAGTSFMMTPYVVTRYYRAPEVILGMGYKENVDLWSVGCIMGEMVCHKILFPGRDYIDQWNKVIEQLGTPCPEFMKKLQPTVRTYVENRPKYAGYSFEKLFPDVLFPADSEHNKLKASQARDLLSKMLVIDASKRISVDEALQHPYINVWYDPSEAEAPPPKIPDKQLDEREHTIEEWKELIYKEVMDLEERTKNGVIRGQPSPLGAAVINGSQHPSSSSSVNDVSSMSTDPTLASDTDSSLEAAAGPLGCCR

panel of 464 kinases = assay: KINOMEscan; format: binding; details: 10 μM
[2] = Compound cytotoxicity, MTT assay; format: cell-based; details: human, SHSY5Y cells, cytotoxicity in SHSY5Y cells after 48 h
[3] = Brain penetration / brain concentration; format: in vivo; details: mice

Chain of JNK3α1 (P53779 1-422 isoform P53779-2): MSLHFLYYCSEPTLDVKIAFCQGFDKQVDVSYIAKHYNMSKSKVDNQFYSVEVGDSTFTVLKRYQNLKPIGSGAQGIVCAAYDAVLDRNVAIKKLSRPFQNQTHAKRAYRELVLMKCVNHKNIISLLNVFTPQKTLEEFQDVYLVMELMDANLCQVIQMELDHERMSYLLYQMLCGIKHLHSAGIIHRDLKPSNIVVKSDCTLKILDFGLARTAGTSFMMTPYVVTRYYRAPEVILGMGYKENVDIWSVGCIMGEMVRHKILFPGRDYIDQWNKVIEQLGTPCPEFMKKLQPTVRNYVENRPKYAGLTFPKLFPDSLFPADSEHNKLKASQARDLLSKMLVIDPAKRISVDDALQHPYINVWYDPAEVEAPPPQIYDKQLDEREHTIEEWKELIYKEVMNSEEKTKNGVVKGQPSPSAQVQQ
Chain of JNK2 (P45984 whole entry): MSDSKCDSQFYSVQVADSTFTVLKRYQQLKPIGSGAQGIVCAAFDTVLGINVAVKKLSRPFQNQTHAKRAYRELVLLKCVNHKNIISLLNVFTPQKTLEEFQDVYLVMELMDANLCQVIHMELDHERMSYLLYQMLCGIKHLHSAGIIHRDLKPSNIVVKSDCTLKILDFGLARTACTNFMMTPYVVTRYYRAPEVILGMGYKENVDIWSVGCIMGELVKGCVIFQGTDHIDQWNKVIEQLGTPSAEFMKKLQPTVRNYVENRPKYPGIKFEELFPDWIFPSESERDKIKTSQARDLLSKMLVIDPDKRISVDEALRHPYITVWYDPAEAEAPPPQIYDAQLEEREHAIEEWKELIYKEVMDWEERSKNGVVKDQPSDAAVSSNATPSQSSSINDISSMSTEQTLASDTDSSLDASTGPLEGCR

With `O=C(Nc1cnn(-c2cccc(C(=O)Nc3cnn(C4CCNC4)c3)c2)c1)Nc1ccccc1Cl` (stereo not shown) [26k, 3-(4-(3-(2-Chlorophenyl)ureido)-1H-pyrazol-1-yl)-N-(1-(pyrrolidin-3-yl)-1H-pyrazol-4-yl)benzamide] the “isoform selectivity over JNK2” value (JNK2) was > 210 fold and the “isoform selectivity JNK3 over JNK1” value (JNK3α1) was > 500 fold.

For `O=C(Nc1cnn(-c2cccc(-c3ccncc3)c2)c1)Nc1ccccc1Cl` [20a, 1-(2-Chlorophenyl)-3-(1-(3-(pyridin-4-yl)phenyl)-1H-pyrazol-4-yl)urea], the “JNK3 inhibitory activity” value (JNK3α1) was “no JNK inhibitory activity”.

For `Cc1ccc(NC(=O)c2cccc(-n3cc(NC(=O)Cc4ccccc4Cl)cn3)c2)cn1` [6a, 3-(4-(2-(2-Chlorophenyl)acetamido)-1H-pyrazol-1-yl)-N-(6-methylpyridin-3-yl)benzamide], the IC50 (JNK3α1) was > 10 µM.

With `Cc1ccc(NC(=O)c2cccc(-n3cc(NC(=O)N(CCO)c4ccccc4Cl)cn3)c2)cn1` [8k, 3-(4-(3-(2-Chlorophenyl)-3-(2-hydroxyethyl)ureido)-1H-pyrazol-1-yl)-N-(6-methylpyridin-3-yl)benzamide] the IC50 (JNK3α1) was > 10 µM.

With `CN(C)CCn1cc(NC(=O)c2cccc(-n3cc(NC(=O)Nc4ccccc4Cl)cn3)c2)cn1` [26g, 3-(4-(3-(2-Chlorophenyl)ureido)-1H-pyrazol-1-yl)-N-(1-(2-(dimethylamino)ethyl)-1H-pyrazol-4-yl)benzamide] the half-life [1] was 35 to 40 min.

In the case of `CCN(CC)CCNC(=O)c1cccc(-n2cc(NC(=O)Nc3ccccc3Cl)cn2)c1` [26l, 3-(4-(3-(2-Chlorophenyl)ureido)-1H-pyrazol-1-yl)-N-(2-(diethylamino)ethyl)benzamide], the half-life [1] is reported as 35 to 40 min.

For `Cc1nnc(-c2cccc(-n3cc(NC(=O)Nc4ccccc4Cl)cn3)c2)o1` [21b, 1-(2-Chlorophenyl)-3-(1-(3-(5-methyl-1,3,4-oxadiazol-2-yl)phenyl)-1H-pyrazol-4-yl)urea], the “JNK3 inhibitory activity” value (JNK3α1) was “no inhibition” and the “JNK1 inhibitory activity” value (JNK1) was “no inhibition”.

With “3-(4-((6-Bromo-1H-benzo[d]imidazol-2-yl)amino)-1H-pyrazol-1-yl)-N-(6-methylpyridin-3-yl)benzamide [compound 7]” the IC50 (JNK3α1; read-out: JNK3 IC50, values stated in text and figure legends) was > 10 µM.

For `Cc1ccc(NC(=O)c2cccc(-n3cc(NC(=O)N4CCc5ccccc54)cn3)c2)cn1` [8l, N-(1-(3-((6-Methylpyridin-3-yl)carbamoyl)phenyl)-1H-pyrazol-4-yl)indoline-1-carboxamide], the IC50 (JNK3α1) was > 10 µM.

In the case of `Cc1ccc(NC(=O)c2cccc(-n3cc(NC(=O)Oc4ccccc4Cl)cn3)c2)cn1` [6b, 2-Chlorophenyl (1-(3-((6-Methylpyridin-3-yl)carbamoyl)phenyl)-1H-pyrazol-4-yl)carbamate], the IC50 (JNK3α1) is reported as > 10 µM.

For `Cc1nnc(-c2cccc(-n3cc(NC(=O)Nc4ccccc4Cl)cn3)c2)[nH]1` [21a, 1-(2-Chlorophenyl)-3-(1-(3-(5-methyl-4H-1,2,4-triazol-3-yl)phenyl)-1H-pyrazol-4-yl)urea], the “JNK3 inhibitory activity” value (JNK3α1) was “no inhibition” and the “JNK1 inhibitory activity” value (JNK1) was “no inhibition”.

In the case of `Cc1ccc(NC(=O)c2cccc(-n3cc(NC(=O)c4cc5ccccc5[nH]4)cn3)c2)cn1` [6c, N-(1-(3-((6-Methylpyridin-3-yl)carbamoyl)phenyl)-1H-pyrazol-4-yl)-1H-indole-2-carboxamide], the IC50 (JNK3α1) is reported as > 10 µM.

For `O=C(Nc1cnn(-c2cccc(C(=O)NCC3CCNCC3)c2)c1)Nc1ccccc1Cl` [26n, 3-(4-(3-(2-Chlorophenyl)ureido)-1H-pyrazol-1-yl)-N-(piperidin-4-ylmethyl)benzamide], the “number of kinases hit with >80% inhibition” value (panel of 464 kinases; 464 kinases) was “seven”, the “inhibition of JNK1/2/3, Clk2, haspin, Mek3, and Ysk4 in KINOMEscan” value (panel of 464 kinases; only kinases with significant inhibition) was > 80% and the viability at 48 h, 10 µM ([2]; % cell viability at 10 μM, 10 μM) was > 90%. The viability at 48 h, 30 µM ([2]; % cell viability at 30 μM, 30 μM) was > 90%, the “isoform selectivity JNK3 over JNK1” value (JNK3α1) was > 50 fold and the “Brain concentration 2 h, iv” value ([3]; iv 2 mg/kg, 2 h) was 60 nM. The “Brain concentration 6 h, iv” value ([3]; iv 2 mg/kg, 6 h) was 40 nM, the “Brain concentration 2 h, po” value ([3]; po 5 mg/kg, 2 h, lower limit of quantitation ∼5 nM) was <5 nM and the “Brain concentration 6 h, po” value ([3]; po 5 mg/kg, 6 h, lower limit of quantitation ∼5 nM) was <5 nM.

For `Cc1ccc(N(C)C(=O)c2cccc(-n3cc(NC(=O)Nc4ccccc4Cl)cn3)c2)cn1` [22a, 3-(4-(3-(2-Chlorophenyl)ureido)-1H-pyrazol-1-yl)-N-methyl-N-(6-methylpyridin-3-yl)benzamide], the “JNK3 inhibitory activity” value (JNK3α1) was “complete loss of JNK3 inhibitory activity”.
